Measured values reported in publication PMC3912015, “Synthetic Multivalent Antifungal Peptides Effective against Fungi” (PLoS ONE, 2014).
Converted amounts (≈) assume the structure as drawn. Read-outs that look alike come from different tables or passages of the source. Bridge positions count the residues as written; N and C are the ends. Ends that are not written are not given here. Peptide text beside a SMILES is read from it. I, II: the chains in the order shown.

Experiments:
C. albicans ATCC10231 = experiment: microbe, parasite or virus in culture; assay type: cell-based; conditions: ATCC10231, 48 h
Method: (§1) The yeast strains were cultivated and suspended in Sabouraud’s Dextrose (SD) broth diluted to one sixth at a starting OD600 = ∼0.08 in a flat-bottomed microtitre plate. A serial dilution of peptide in the same broth was mixed with the inoculum to give a final peptide concentration of 0.4–22 µM. The antifungal activity was assessed by monitoring the OD600 in cycles of 30 minutes and an orbital shaking at 100 rpm using an Infinite M200 microplate reader (Tecan Group Ltd., Switzerland) for 24/48 h at 37°C. Cultures without peptides were used as positive controls and broth alone or with 22 µM peptide served as negative controls. The minimum concentration required for complete inhibition was assessed by both visible observations as well as by measuring the OD600 and taken as the MIC. Each experiment was repeated in triplicates. For studying the effects of metal ions, SD broth was adjusted with appropriate concentrations of salts to yield a final concentration of 100 and 135 mM for NaCl and KCl and 0.5–2 mM for CaCl2 and MgCl2. MIC determinations were carried out as described above. C. albicans ATCC10231 cells and salts in broth were taken as a positive control. Salts alone (NaCl, KCl, and CaCl2 and MgCl2) in broth or with 22 µM peptide served as a negative control. The effect of 5% human serum on the activities of B4010 against two C. albicans clinical isolates was determined. The human male serum was centrifuged at 13,000 rpm for 10 mins in order to remove the lipids and the supernatant was collected. The MIC values against clinical isolates of C. albicans 2672R and C. albicans 1976R were determined both in standard medium (SD broth) as well as in standard medium containing 5% serum supernatant as before.

C. albicans DF2672R = experiment: microbe, parasite or virus in culture; assay type: cell-based; conditions: DF2672R, 48 h
Method: as §1

F. solani ATCC36031 = experiment: microbe, parasite or virus in culture; assay type: cell-based; conditions: ATCC36031, 48 h
C. albicans ATCC2091 = experiment: microbe, parasite or virus in culture; assay type: cell-based; conditions: ATCC2091, 48 h
Method: as §1

C. albicans ATCC24433 = experiment: microbe, parasite or virus in culture; assay type: cell-based; conditions: ATCC24433, 48 h
Method: as §1

C. albicans DF1976R = experiment: microbe, parasite or virus in culture; assay type: cell-based; conditions: DF1976R, 48 h
Method: as §1

[1] = assay type: biochemical
Method: Small unilamellar vesicles (SUVs) were prepared using PC/PE/PI or PS lipids (5∶2.5∶2.5) containing 15 wt% ergosterol or PC/Cholesterol (10∶1). For the preparation of PC/PE/PI or PS/Erg SUV, the lipids were dissolved in chloroform/methanol (2∶1, v/v) in a glass tube. Ergosterol was dissolved in same solvent and added to lipid mixture to make final ergosterol content of 15 wt%. The Lipid-ergosterol mixture was dried using nitrogen gas to form lipid layer. The film was hydrated in a buffer containing 20 mM PBS (pH 7), vortexed and sonicated. Each cycle of sonication (5 sec, 40°C) was followed by freezing in liquid nitrogen and thawing on a water bath kept at 37°C. The procedure was repeated 5–6 times until an optically clear dispersion appeared. The SUV was divided into two parts. To the first part 50 mM calcein was added and incubated for 1 h. The excess calcein was removed by injecting 100 µL of the calcien-loaded SUV’s into a Ultrahydrogel™ 250 (7.8 mm × 300 mm) column equilibrated with 20 mM PBS (pH 7.0) and eluted isochratically at a flow rate of 1 mL/min for 1.5 column volumes. The calcein-loaded liposomes were mixed with calcein-free liposome (1∶1) to adjust final liposome concentration. Peptide concentration was added to obtain 1∶30 or 1∶15 peptide:liposome ratio. Changes in the fluorescence signal after addition of peptide or Triton X-100 was measured on a PTI spectrofluorometer, using an excitation wavelength of 480 nm and emission wavelength of 512 nm. The Percentage calcein released at each time point was calculated using the equation, [drawing 1]
Where A0 is the observed fluorescence intensity upon addition of peptides, Amin is the average intensity at the baseline (before peptide addition), Amax is the average intensity at the saturation phase after adding 1% Triton X-100. Similar protocol was followed for the preparation of PC/Cholesterol SUVs.

in vitro = assay type: cell-based, human; conditions: human
Method: (§2) Immortalized normal human conjunctival epithelial cells (IOBANHC) were a gift from Yolanda Diebold at the University of Valladolid, Spain [31]. IOBA-NHC cells were cultured under standard conditions (humidified atmosphere of 5% CO2 at 37°C) in DMEM/F12 supplemented with 1 µg/ml bovine pancreas insulin, 2 ng/ml mouse epidermal growth factor, 0.1 µg/ml cholera toxin, 5 µg/ml hydrocortisone, 10% fetal bovine serum (FBS), 50 UI/ml penicillin, and 50 UI/ml streptomycin. Cells from passages 50–80 were used in all experiments. Every day, normal culture development was observed by phase-contrast microscopy. Cells were removed by gentle trypsin incubation at confluence and counted. They were seeded into 96 well culture plates (Corning, Schiphol-Rijk, The Netherlands) for microtitration analysis of flow cytotoxicity assay (∼10,000 cells/well). Cultures were kept at 37°C for 24 h. Subconfluent cells (culture surface covering nearly 70%) were then exposed to various peptide concentrations (0.22–225 µM). Cytotoxicity was measured periodically using MultiTox-Fluor Multiplex assay kit (Promega, WI, USA) by measuring the AFC fluorescence (λex = 485 and λem = 520 nm). We report the cell viability after 24 h incubation of the cells with the peptides since there was no detectable toxicity even after 8 h of incubation.

[2] = tested on: human conjunctival epithelial cells (IOBA-NHC); experiment: in vitro; assay type: cell-based; conditions: 24 h
Method: as §2

[3] = read-out: MIC in µM against Ca 10231
[4] = read-out: MIC in µM against Ca 2091
[5] = read-out: MIC in µM against Ca 24433
[6] = read-out: MIC in µM against Ca DF1976R
[7] = read-out: MIC in µM against Ca 2672R

| Compound | MIC (C. albicans ATCC10231; read-out: MIC) [µM] | MIC (C. albicans DF2672R; read-out: MIC) [µM] | MIC (F. solani ATCC36031) [µM] | MIC (C. albicans ATCC2091; read-out: MIC) [µM] | MIC (C. albicans ATCC24433; read-out: MIC) [µM] | MIC (C. albicans DF1976R; read-out: MIC) [µM] | calcein release relative to B4010 [1] | MIC (C. albicans ATCC10231; [3]) [µM] | MIC (C. albicans ATCC2091; [4]) [µM] | MIC (C. albicans ATCC24433; [5]) [µM] | MIC (C. albicans DF1976R; [6]) [µM] | MIC (C. albicans DF2672R; [7]) [µM] | viability at 24 h, 237 µM (in vitro) [%] | EC50 [2] [µM] | % Calcein released from PC/PE/PS/Erg [1] [%] |
| --- | --- | --- | --- | --- | --- | --- | --- | --- | --- | --- | --- | --- | --- | --- | --- |
| RGRKVVRRKK [Monomer] | 78 | 78 | >78 |  |  |  |  |  |  |  |  |  |  |  |  |
| RGRKVVRRKKRRVVKRGR [Linear Retrodimer] | 22 | 2.7 |  | 11 | 5.5 | 2.7 |  |  |  |  |  |  |  |  |  |
| CC(C)[C@H](NC(=O)[C@H](CCCCN)NC(=O)[C@H](CCCNC(=N)N)NC(=O)CNC(=O)[C@@H](N)CCCNC(=N)N)C(=O)N[C@H](C(=O)N[C@@H](CCCNC(=N)N)C(=O)N[C@@H](CCCNC(=N)N)C(=O)NCCCC[C@H](NC(=O)[C@H](CCCNC(=N)N)NC(=O)[C@H](CCCNC(=N)N)NC(=O)[C@@H](NC(=O)[C@@H](NC(=O)[C@H](CCCCN)NC(=O)[C@H](CCCNC(=N)N)NC(=O)CNC(=O)[C@@H](N)CCCNC(=N)N)C(C)C)C(C)C)C(=O)N[C@@H](CCCCN)C(=O)O)C(C)C [B2088] (I: H-RGRKVVRRKK-OH / II: H-RGRKVVRR; amide I:9-II:C; N-terminus and C-terminus assumed) | 5.5 (≈ 12.6 µg/mL) | 0.8 (≈ 1.83 µg/mL) | 10.9 (≈ 25 µg/mL) | 1.4 (≈ 3.21 µg/mL) | 2.7 (≈ 6.19 µg/mL) | 0.8 (≈ 1.83 µg/mL) | decreased calcein release |  |  |  |  |  |  |  |  |
| CC(C)[C@H](N)C(=O)N[C@@H](CCCNC(=N)N)C(=O)NCC(=O)N[C@@H](CCCNC(=N)N)C(=O)N[C@H](C(=O)N[C@@H](CCCNC(=N)N)C(=O)N[C@@H](CCCCN)C(=O)N[C@@H](CCCNC(=N)N)C(=O)NCCCC[C@H](NC(=O)[C@H](CCCNC(=N)N)NC(=O)[C@H](CCCCN)NC(=O)[C@H](CCCNC(=N)N)NC(=O)[C@@H](NC(=O)[C@H](CCCNC(=N)N)NC(=O)CNC(=O)[C@H](CCCNC(=N)N)NC(=O)[C@@H](N)C(C)C)C(C)C)C(=O)NCCCC[C@H](NC(=O)[C@H](CCCCNC(=O)[C@H](CCCNC(=N)N)NC(=O)[C@H](CCCCN)NC(=O)[C@H](CCCNC(=N)N)NC(=O)[C@@H](NC(=O)[C@H](CCCNC(=N)N)NC(=O)CNC(=O)[C@H](CCCNC(=N)N)NC(=O)[C@@H](N)C(C)C)C(C)C)NC(=O)[C@H](CCCNC(=N)N)NC(=O)[C@H](CCCCN)NC(=O)[C@H](CCCNC(=N)N)NC(=O)[C@@H](NC(=O)[C@H](CCCNC(=N)N)NC(=O)CNC(=O)[C@H](CCCNC(=N)N)NC(=O)[C@@H](N)C(C)C)C(C)C)C(=O)N[C@@H](CCCCN)C(=O)O)C(C)C [Sc_B4010] (I: H-VRGRVRKRKKK-OH / II: H-VRGRVRKRK / III: H-VRGRVRKR / IV: H-VRGRVRKR; amide I:9-IV:C, I:10-II:C, II:9-III:C; N-terminus and C-terminus assumed) | 5.6 (≈ 25.6 µg/mL) | 0.8 (≈ 3.65 µg/mL) |  | 2.7 (≈ 12.3 µg/mL) | 5.6 (≈ 25.6 µg/mL) | 0.8 (≈ 3.65 µg/mL) | decreased calcein release |  |  |  |  |  |  |  |  |
| CC(C)[C@H](NC(=O)[C@H](CCCCN)NC(=O)[C@H](CCCNC(=N)N)NC(=O)CNC(=O)[C@H](C)N)C(=O)N[C@H](C(=O)N[C@@H](CCCNC(=N)N)C(=O)N[C@@H](CCCNC(=N)N)C(=O)NCCCC[C@H](NC(=O)[C@H](CCCNC(=N)N)NC(=O)[C@H](CCCNC(=N)N)NC(=O)[C@@H](NC(=O)[C@@H](NC(=O)[C@H](CCCCN)NC(=O)[C@H](CCCNC(=N)N)NC(=O)CNC(=O)[C@H](C)N)C(C)C)C(C)C)C(=O)NCCCC[C@H](NC(=O)[C@H](CCCCNC(=O)[C@H](CCCNC(=N)N)NC(=O)[C@H](CCCNC(=N)N)NC(=O)[C@@H](NC(=O)[C@@H](NC(=O)[C@H](CCCCN)NC(=O)[C@H](CCCNC(=N)N)NC(=O)CNC(=O)[C@H](C)N)C(C)C)C(C)C)NC(=O)[C@H](CCCNC(=N)N)NC(=O)[C@H](CCCNC(=N)N)NC(=O)[C@@H](NC(=O)[C@@H](NC(=O)[C@H](CCCCN)NC(=O)[C@H](CCCNC(=N)N)NC(=O)CNC(=O)[C@H](C)N)C(C)C)C(C)C)C(=O)N[C@@H](CCCCN)C(=O)O)C(C)C [B4010_R1A] (I: H-AGRKVVRRKKK-OH / II: H-AGRKVVRRK / III: H-AGRKVVRR / IV: H-AGRKVVRR; amide I:9-IV:C, I:10-II:C, II:9-III:C; N-terminus and C-terminus assumed) |  |  |  |  |  |  |  | 5.9 (≈ 24.9 µg/mL) | 1.5 (≈ 6.33 µg/mL) | 5.9 (≈ 24.9 µg/mL) | 0.75 (≈ 3.17 µg/mL) | 1.5 (≈ 6.33 µg/mL) | 67.6 | > 237 |  |
| CC(C)[C@H](NC(=O)[C@H](CCCCN)NC(=O)[C@H](C)NC(=O)CNC(=O)[C@@H](N)CCCNC(=N)N)C(=O)N[C@H](C(=O)N[C@@H](CCCNC(=N)N)C(=O)N[C@@H](CCCNC(=N)N)C(=O)NCCCC[C@H](NC(=O)[C@H](CCCNC(=N)N)NC(=O)[C@H](CCCNC(=N)N)NC(=O)[C@@H](NC(=O)[C@@H](NC(=O)[C@H](CCCCN)NC(=O)[C@H](C)NC(=O)CNC(=O)[C@@H](N)CCCNC(=N)N)C(C)C)C(C)C)C(=O)NCCCC[C@H](NC(=O)[C@H](CCCCNC(=O)[C@H](CCCNC(=N)N)NC(=O)[C@H](CCCNC(=N)N)NC(=O)[C@@H](NC(=O)[C@@H](NC(=O)[C@H](CCCCN)NC(=O)[C@H](C)NC(=O)CNC(=O)[C@@H](N)CCCNC(=N)N)C(C)C)C(C)C)NC(=O)[C@H](CCCNC(=N)N)NC(=O)[C@H](CCCNC(=N)N)NC(=O)[C@@H](NC(=O)[C@@H](NC(=O)[C@H](CCCCN)NC(=O)[C@H](C)NC(=O)CNC(=O)[C@@H](N)CCCNC(=N)N)C(C)C)C(C)C)C(=O)N[C@@H](CCCCN)C(=O)O)C(C)C [B4010_R3A] (I: H-RGAKVVRRKKK-OH / II: H-RGAKVVRRK / III: H-RGAKVVRR / IV: H-RGAKVVRR; amide I:9-IV:C, I:10-II:C, II:9-III:C; N-terminus and C-terminus assumed) |  |  |  |  |  |  |  | 1.5 (≈ 6.33 µg/mL) | 1.5 (≈ 6.33 µg/mL) | 1.5 (≈ 6.33 µg/mL) | 0.4 (≈ 1.69 µg/mL) | 0.4 (≈ 1.69 µg/mL) | 80.9 | > 237 | ~63 |
